“And” between values parts separate entries of the source, which are not always exact repeats. Equal entries are not always repeated. “Also recorded” adds a separate entry of the source. Where two headings read alike, the source gives them in different places.
Tests used:
SHP2 [1] = target: T1, SHP2 (Homo sapiens, UniProt Q06124); assay: SHP2 phosphatase inhibition assay (pNPP); format: biochemical; details: for Mode of SHP2 inhibition: with respect to pNPP
T1 sequence (Q06124 224-528): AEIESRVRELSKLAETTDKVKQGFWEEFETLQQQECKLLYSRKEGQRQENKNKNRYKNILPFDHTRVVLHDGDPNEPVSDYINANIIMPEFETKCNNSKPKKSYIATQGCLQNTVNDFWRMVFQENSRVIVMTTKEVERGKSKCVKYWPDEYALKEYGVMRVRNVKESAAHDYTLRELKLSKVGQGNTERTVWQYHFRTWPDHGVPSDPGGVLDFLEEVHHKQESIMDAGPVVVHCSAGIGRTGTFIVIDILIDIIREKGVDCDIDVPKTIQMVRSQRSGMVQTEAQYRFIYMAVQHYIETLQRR

[2] = Stability in buffer solutions by LC-MS; format: physicochemical
Protocol: (§1) Agilent Technologies 6130 quadrupole LC-MS instrument was used for the LC-MS studies. A C18 reserved phase column (phenomenex, 50×4.6 mm) was used as stationary phase, water and methanol (both containing 0.1% formic acid) were used as mobile phase (gradient: 0-100% methanol, flow 0.8 mL/min, run time 15 minutes), and UV absorbance at the fixed wavelength of 254 nm and positive and negative ESI-MS data were recorded. The sample was adjusted to have a concentration at 0.1 mg/mL, and the injection volume of each sample was 0.2 μL. The retention time and corresponding ESI-MS data were used as identity of molecules.

SHP2/R362A = SHP2/R362A (Homo sapiens, UniProt Q06124, R362A); assay: SHP2 mutant inhibition assay (pNPP); format: biochemical
SHP2/R362A, sequence (Q06124 224-528 R362A): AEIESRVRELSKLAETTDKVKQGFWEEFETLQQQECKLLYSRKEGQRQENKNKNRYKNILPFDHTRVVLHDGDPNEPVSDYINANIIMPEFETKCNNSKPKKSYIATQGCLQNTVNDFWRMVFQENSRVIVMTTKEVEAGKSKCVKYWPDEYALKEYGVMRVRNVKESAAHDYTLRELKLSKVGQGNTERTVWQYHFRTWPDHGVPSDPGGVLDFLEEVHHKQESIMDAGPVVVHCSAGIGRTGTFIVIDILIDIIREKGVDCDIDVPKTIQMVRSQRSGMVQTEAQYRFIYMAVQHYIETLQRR

PP5 = target: T2, PP5 (Homo sapiens, UniProt P53041); assay: biochemical
T2 sequence (P53041 1-499): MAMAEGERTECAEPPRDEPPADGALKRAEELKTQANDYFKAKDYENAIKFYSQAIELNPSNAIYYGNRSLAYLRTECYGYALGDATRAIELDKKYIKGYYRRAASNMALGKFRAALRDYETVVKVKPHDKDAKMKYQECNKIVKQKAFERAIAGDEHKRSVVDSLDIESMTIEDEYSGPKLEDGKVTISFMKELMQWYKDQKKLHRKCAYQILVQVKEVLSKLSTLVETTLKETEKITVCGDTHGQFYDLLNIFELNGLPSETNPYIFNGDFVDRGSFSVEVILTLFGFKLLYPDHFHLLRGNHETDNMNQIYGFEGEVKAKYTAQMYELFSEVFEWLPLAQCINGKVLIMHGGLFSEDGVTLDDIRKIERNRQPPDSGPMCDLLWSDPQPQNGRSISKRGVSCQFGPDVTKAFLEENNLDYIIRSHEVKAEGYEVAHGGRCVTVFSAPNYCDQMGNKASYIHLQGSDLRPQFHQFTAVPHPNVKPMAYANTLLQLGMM

SHP2/E508A = SHP2/E508A (Homo sapiens, UniProt Q06124, E508A); assay: SHP2 mutant inhibition assay (pNPP); format: biochemical; details: pH 7.0
SHP2/E508A, sequence (Q06124 224-528 E508A): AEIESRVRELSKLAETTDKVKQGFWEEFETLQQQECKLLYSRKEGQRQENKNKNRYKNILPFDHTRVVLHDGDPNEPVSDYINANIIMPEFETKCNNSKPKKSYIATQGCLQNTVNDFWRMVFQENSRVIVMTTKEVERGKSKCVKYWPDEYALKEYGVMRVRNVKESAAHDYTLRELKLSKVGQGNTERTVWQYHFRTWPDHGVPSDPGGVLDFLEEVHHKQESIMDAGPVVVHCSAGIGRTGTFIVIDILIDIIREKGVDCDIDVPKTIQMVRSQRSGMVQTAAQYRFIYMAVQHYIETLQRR

PTPμ = PTPμ (Homo sapiens, UniProt P28827); assay: biochemical
PTPμ, sequence (P28827 21-1452): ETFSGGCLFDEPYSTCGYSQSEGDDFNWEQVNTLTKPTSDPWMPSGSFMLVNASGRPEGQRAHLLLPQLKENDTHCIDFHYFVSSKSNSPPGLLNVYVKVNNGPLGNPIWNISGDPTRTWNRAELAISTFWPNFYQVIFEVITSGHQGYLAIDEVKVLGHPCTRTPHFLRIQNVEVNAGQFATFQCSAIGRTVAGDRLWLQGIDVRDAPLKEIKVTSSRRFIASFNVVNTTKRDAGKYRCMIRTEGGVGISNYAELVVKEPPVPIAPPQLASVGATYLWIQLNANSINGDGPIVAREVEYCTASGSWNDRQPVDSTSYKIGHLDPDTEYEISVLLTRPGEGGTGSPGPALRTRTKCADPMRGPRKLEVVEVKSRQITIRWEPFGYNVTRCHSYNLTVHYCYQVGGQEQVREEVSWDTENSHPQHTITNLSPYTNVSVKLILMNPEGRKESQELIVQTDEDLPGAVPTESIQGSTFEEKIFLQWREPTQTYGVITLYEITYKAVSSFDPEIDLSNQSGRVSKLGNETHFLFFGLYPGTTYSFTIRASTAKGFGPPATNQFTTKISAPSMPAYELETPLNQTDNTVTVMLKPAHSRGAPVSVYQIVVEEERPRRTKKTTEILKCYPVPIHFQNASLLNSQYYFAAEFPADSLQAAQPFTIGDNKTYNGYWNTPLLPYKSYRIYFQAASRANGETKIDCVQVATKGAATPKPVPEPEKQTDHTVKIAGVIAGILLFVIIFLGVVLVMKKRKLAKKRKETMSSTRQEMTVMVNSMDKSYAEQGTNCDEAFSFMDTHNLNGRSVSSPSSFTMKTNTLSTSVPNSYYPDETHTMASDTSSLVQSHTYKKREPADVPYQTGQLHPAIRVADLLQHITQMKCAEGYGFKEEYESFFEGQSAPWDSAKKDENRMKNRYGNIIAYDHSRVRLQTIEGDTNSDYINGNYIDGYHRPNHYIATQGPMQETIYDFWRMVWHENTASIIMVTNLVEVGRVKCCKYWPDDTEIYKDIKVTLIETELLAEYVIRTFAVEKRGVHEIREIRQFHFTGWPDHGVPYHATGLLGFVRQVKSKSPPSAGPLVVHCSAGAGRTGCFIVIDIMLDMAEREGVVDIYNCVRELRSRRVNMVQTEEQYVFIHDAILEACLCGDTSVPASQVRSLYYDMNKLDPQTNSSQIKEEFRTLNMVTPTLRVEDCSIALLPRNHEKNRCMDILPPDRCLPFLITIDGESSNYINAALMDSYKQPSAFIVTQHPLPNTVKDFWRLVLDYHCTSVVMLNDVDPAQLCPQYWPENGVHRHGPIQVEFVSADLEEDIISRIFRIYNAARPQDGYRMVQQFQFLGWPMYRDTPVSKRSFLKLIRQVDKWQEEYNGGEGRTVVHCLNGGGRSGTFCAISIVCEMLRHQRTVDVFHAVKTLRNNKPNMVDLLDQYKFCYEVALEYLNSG

SHP2 [3] = target: SHP2 (Homo sapiens, UniProt Q06124); assay: Covalent modification of SHP2 by QTOF ESI-MS / LC-MS; details: 100 μM compound; cefsulodin three hours, phenyl vinyl sulfone 10 minutes
Protocol: Agilent 6520 Accurate-Mass was used for the Q-TOF ESI-MS studies. Water and acetonitrile (both containing 0.1% formic acid) were used as eluent (80% water, flow 50 μL/min, run time 5 minutes). ESI positive mode was used with mass range from 300 to 1700, the gas temperature was 325° C., and vaporizer temperature was: […]. The sample was adjusted to have a concentration at 0.1 mg/mL, the injection volume of each sample was 1 μL. Mass hunter software was used for protein deconvolution data analysis to calculate the molecular weight of the protein.
as §1

[4] = system: H1975 non-small cell lung cancer (NSCLC) cell line; assay: MTT cell proliferation assay; format: cell-based, human; details: 20 μM and 40 μM, 2 days
Protocol: (§2) Human non-small cell lung carcinoma cell line H1975 was cultured at 37° C. and 5% CO2 in RPMI-1640 (Corning) supplemented with 10% fetal bovine serum (HyClone). Human breast cancer cell line MDA-MB-231 was cultured in DMEM supplemented with 10% fetal bovine serum. For cell proliferation assay, 2˜3×10^3 cells were seeded in each well of 96-well plates. After treating cells with compounds for 2 days, cells were incubated with 50 μg/ml MTT (3-(4,5-Dimethylthiazol-2-yl)-2,5-diphenyltetrazolium bromide) for ˜3-4 hours. Then, the culture medium was removed, DMSO was added to dissolve the formazan crystals. Wells containing only media were used for background correction. The optical density was measured spectrophotometrically at 540 nm. For signaling analysis, cells were serum-starved overnight followed by treatment with vehicle or compounds for 3 hours, and then either left un-stimulated or stimulated with 5 μg/ml EGF or 10 nM PMA (Sigma) for indicated time. Cells were lysed and the lysates were electrophoresed on a 10% polyacrylamide gel, and then transferred to a nitrocellulose membrane, and probed with anti-phospho-ERK1/2 and anti-ERK1/2 (Cell Signaling) antibodies followed by incubation with horseradish peroxidase-conjugated secondary antibodies. The blots were developed by the enhanced chemiluminescence technique using the SuperSignal West Pico Chemiluminescent substrate (Pierce).

[5] = system: MDA-MB-231 breast cancer cell line; assay: MTT cell proliferation assay; format: cell-based, human; details: 20 μM and 40 μM, 2 days
Protocol: as §2

[6] = system: EGF-mediated ERK1/2 phosphorylation in H1975 cells; assay: EGF-induced ERK1/2 phosphorylation immunoblot; format: cell-based, human; details: compound 7 at 40 μM
Protocol: as §2

M. tuberculosis Erdman = assay: Microplate Alamar Blue assay (MABA) MIC; format: cell-based; details: Mycobacterium tuberculosis, minimum inhibitory concentration, read-out: In vitro anti-Mtb activity MABA-MIC Erdman
[7] = system: M. tuberculosis (Erdman and H37Rv) in J774 macrophages; assay: Macrophage assay: growth of M. tuberculosis in IFN-γ activated J774 macrophages; format: cell-based, Mycobacterium tuberculosis
[8] = Pharmacokinetics and bioavailability in guinea pigs; format: in vivo, guinea pig; details: oral
Protocol: All drugs were suspended in 1% DMSO, 0.5% DEA, 48.5% PEG 400, and 50% water. Blood was collected for analysis of these drugs in plasma pre-dose and at 1, 4, 8, 24, and 48 h post-dose. Plasma was separated and stored at −70° C. until analysis. Plasma drug concentrations were determined by liquid chromatography-mass spectrometry and liquid chromatography-tandem mass spectrometry over the concentration range of 0.005-1 mg/L with dilution to 10 mg/L. Pharmacokinetic variables were calculated from individual drug concentration-time data using non-compartmental methods as implemented in WinNonlin version 5.0 (Pharsight, Mountain View, Calif.) as described earlier.

M. tuberculosis H37Rv = assay: Microplate Alamar Blue assay (MABA) MIC; format: cell-based, Mycobacterium tuberculosis
[9] = Example 9: SHP2 catalytic domain 20 nM, pNPP 3 mM, pH 7.0, 25° C., read-out: IC50 SHP2

NC(=O)c1cc[n+](CC2=C(C(=O)O)N3C(=O)[C@@H](NC(=O)[C@@H](c4ccccc4)S(=O)(=O)[O-])[C@H]3SC2)cc1 [Cefsulodin, reference compound]
IC50 (SHP2 [1]; [9]): 16.8 µM and 16.7 µM | Ki (SHP2 [1]; Lineweaver-Burk, pNPP as substrate): 6.6 ± 0.2 µM | Fold selectivity for SHP2 against PTPs examined (SHP2 [1]; cefsulodin: with the exception of SHP1): greater than 10 fold | IC50 (SHP2 [1]; incubated with SHP2 for 30 minutes prior to addition of pNPP, read-out: IC50 SHP2, inhibitor pre-mixed with SHP2): 16.8 ± 1.8 µM | IC50 (SHP2 [1]; incubated with pNPP for 30 minutes prior to addition of SHP2, read-out: IC50 SHP2, inhibitor pre-mixed with pNPP): 17.5 ± 2 µM | Mode of SHP2 inhibition (SHP2 [1]): competitive inhibitor | Mode of SHP2 inhibition (SHP2 [1]; listed as cefsulodin): competitive and reversible SHP2 inhibitor | Degradation in pH 5.8 MES buffer ([2]; 20 mM MES, 250 mM NaCl, 1 mM EDTA, LC-MS): negligible | Degradation in pH 7.4 CBTP buffer ([2]; 33 mM Citric acid, 67 mM BIS-TRIS Propane, LC-MS): obvious | Degradation in CBTP buffer at pH 9.1 ([2]; LC-MS): further accelerated | Time stable in MES buffer pH=5.8 ([2]; LC-MS): at least 2 days | Time until compound was gone in CBTP buffer pH=9.1 ([2]; LC-MS): ≤ 12 h | Time to complete degradation under crystallization condition ([2]; final pH=7.1, 20° C., with SHP2 and DTT): ≤ 2 days | IC50 (SHP2/R362A; pNPP, pH 7.0): 46.5 ± 4.9 µM | Fold increase of IC50 by replacement of R362 with alanine (SHP2/R362A; vs wild-type SHP2): 3 fold | IC50 (PP5): > 200 µM | IC50 (SHP2/E508A): 19 ± 1 µM | IC50 (PTPμ): > 200 µM | Covalent adduct formation with SHP2 (QTOF ESI-MS) (SHP2 [3]): no covalent adduct formation

O=C(Nc1ccc(NC(=O)C(c2ccccc2)S(=O)(=O)O)cc1)C(=O)Nc1ccc(-c2ccccc2)cc1 (stereo not drawn) [Compound 5, 2-((4-(2-([1,1′-biphenyl]-4-ylamino)-2-oxoacetamido)phenyl)amino)-2-oxo-1-phenylethanesulfonic acid]
IC50 (SHP2 [1]; [9]): 1.36 ± 0.04 µM | IC50 (PP5): > 10 µM | IC50 (PTPμ): > 10 µM | H1975 cell proliferation (MTT) [4]: reduce H1975 cell proliferation in a dose dependent manner; also recorded: significantly (**p<0.01) reduced cell proliferation | MDA-MB-231 cell survival/growth (MTT) [5]: significantly (**p<0.01) reduced cell survival

O=C(Nc1ccccc1)C(=O)Nc1ccc(NC(=O)C(c2ccccc2)S(=O)(=O)O)cc1 (stereo not drawn) [Compound 7, 2-oxo-2-((4-(2-oxo-2-(phenylamino)acetamido)phenyl)amino)-1-phenylethanesulfonic acid]
Inhibition of SHP2 at 50 μM (SHP2 [1]; 50 μM): no inhibition | IC50 (SHP2 [1]; [9]): > 50 µM | Effect on EGF-mediated ERK1/2 phosphorylation [6]: no appreciable effect; also recorded: failed to block EGF-mediated ERK1/2 phosphorylation | H1975 cell proliferation (MTT) [4]: ineffective; also recorded: did not | MDA-MB-231 cell survival/growth (MTT) [5]: did not

O=C(O)c1cc2c(C#Cc3cccc(C(F)(F)F)c3)c(-c3ccccc3)oc2cc1O [Compound L01Z08]
MIC (M. tuberculosis Erdman): > 10 µM | Anti-Mtb activity in infected macrophages ([7]; J774A.1 macrophages, low micromolar concentrations): potent anti-Mtb activity | IC90 ([7]; Mycobacterium tuberculosis, J774, IC90 in macrophages activated with interferon-γ, read-out: In vitro anti-Mtb activity, Mtb-infected macrophages (IC90)): < 5 µM | Oral bioavailability and half-life in guinea pigs [8]: good oral bioavailability and half-life | Activity in standard MIC assay (M. tuberculosis H37Rv): inactive | MIC (M. tuberculosis H37Rv; Mycobacterium tuberculosis, H37RV, minimum inhibitory concentration, read-out: In vitro anti-Mtb activity MABA-MIC H37Rv): > 10 µM

C=CS(=O)(=O)c1ccccc1 [phenyl vinyl sulfone]
Covalent adduct formation with SHP2 (QTOF ESI-MS) (SHP2 [3]): formed a covalent adduct
